Results: the NIST ThermoML archive (doi:10.1021/je101184s)
Numbers after ± are expanded uncertainties.

Experiment: relative permittivity at zero frequency (dimensionless)
Conditions: 298.15 K; 101.33 kPa; Liquid; Coaxial cylinder capacitor

| SMILES | relative permittivity at zero frequency |
| --- | --- |
| CCCC[n+]1c(C)c(C)n(C)c1C.F[B-](F)(F)F | 12 ± 1.2 |
| CCCCn1c(C)c(C)[n+](C)c1C.O=S(=O)([N-]S(=O)(=O)C(F)(F)F)C(F)(F)F | 15 ± 1.6 |
| CCCCn1cc[n+](C)c1C.O=S(=O)([N-]S(=O)(=O)C(F)(F)F)C(F)(F)F | 14 ± 1.6 |
| CCn1cc[n+](C)c1C.O=S(=O)([N-]S(=O)(=O)C(F)(F)F)C(F)(F)F | 12.8 ± 0.8 |
| COP(=O)([O-])OC.Cn1cc[n+](C)c1 [1,3-dimethylimidazolium dimethylphosphate] | 29.6 ± 3 |
| C[n+]1ccn(CCO)c1.F[B-](F)(F)F [1-(2-hydroxyethyl)-3-methylimidazolium tetrafluoroborate] | 23.3 ± 2 |
| CCCC[N+]1(C)CCCC1.N#CN=C=[N-] [1-butyl-1-methylpyrrolidinium dicyanamide] | 18 ± 1.6 |
| CCCCn1cc[n+](C)c1C.F[P-](F)(F)(F)(F)F [1-butyl-2,3-dimethylimidazolium hexafluorophosphate] | 9.4 ± 2 |
| CCCCn1cc[n+](C)c1C.F[B-](F)(F)F [1-butyl-2,3-dimethylimidazolium tetrafluoroborate] | 13.3 ± 1.2 |
| CCCCn1cc[n+](C)c1.F[P-](F)(F)(F)(F)F [1-butyl-3-methylimidazolium hexafluorophosphate] | 14 ± 1.4 |
| CCCCn1cc[n+](C)c1.F[B-](F)(F)F [1-butyl-3-methylimidazolium tetrafluoroborate] | 13.9 ± 0.8 |
| CCCCn1cc[n+](C)c1.N#C[S-] [1-butyl-3-methylimidazolium thiocyanate] | 13.7 ± 1.6 |
| CCCCn1cc[n+](C)c1.O=S(=O)([O-])C(F)(F)F [1-butyl-3-methylimidazolium trifluoromethanesulfonate] | 12.9 ± 1 |
| CCCCS(=O)(=O)[O-].CCn1cc[n+](C)c1 [1-ethyl-3-methylimidazolium butylsulfonate] | 30 ± 3 |
| CCOP(=O)([O-])OCC.CCn1cc[n+](C)c1 [1-ethyl-3-methylimidazolium diethyl phosphate] | 16.9 ± 1.6 |
| CCOS(=O)(=O)[O-].CCn1cc[n+](C)c1 [1-ethyl-3-methylimidazolium ethyl sulfate] | 35 ± 3 |
| CCn1cc[n+](C)c1.O=S(=O)([O-])O [1-ethyl-3-methylimidazolium hydrogen sulfate] | 18.4 ± 2 |
| CCn1cc[n+](C)c1.O=S(=O)([O-])C(F)(F)F [1-ethyl-3-methylimidazolium trifluoromethanesulfonate] | 16.5 ± 1 |
| Br.Cn1ccnc1 [1-methylimidazolium bromide] | 16.6 ± 2.4 |
| Cl.Cn1ccnc1 [1-methylimidazolium chloride] | 13.8 ± 2 |
| CC(=O)[O-].[NH3+]CCO [2-hydroxyethylammonium acetate] | 58.3 ± 5 |
| CC(O)C(=O)[O-].[NH3+]CCO (stereo unspecified) [2-hydroxyethylammonium lactate] | 85.6 ± 8 |
| O=[N+]([O-])[O-].[NH3+]CCO [ethanolammonium nitrate] | 60.9 ± 4 |
| CC(O)C(=O)O.OCCN(CCO)CCO [triethanolamine lactate] | 59.7 ± 6 |
| CC(=O)O.OCCN(CCO)CCO [triethanolammonium acetate] | 31 ± 3 |
| CCCCC[N+](CC)(CC)CC.O=S(=O)([N-]S(=O)(=O)C(F)(F)F)C(F)(F)F [triethylpentylammonium bis(trifluoromethylsulfonyl)imide] | 12.5 ± 1.4 |
